Source: PMC5909342, “Increasing the bioactive space of peptide macrocycles by thioamide substitution” (Chemical Science, 2018)
Read-outs that look alike come from different tables or passages of the source.

Assays:
[1] = target: T1, α5β1 integrin (Homo sapiens, UniProt P05556+P08648); test: Competitive solid-phase integrin binding assay (ELISA), fibronectin-α5β1; conditions: purified integrin, n = 5 ± SEM, read-out: In vitro IC50 α5β1
T1 construct: purchased Millipore
Method: (§1) The initial structure was obtained by following a simulated annealing protocol. […] For the structure of 7-11 (including 9a-9d) explicit solvent box of H2O was used with periodic boundary conditions. A 2 ns restrained molecular dynamics run was then performed. The average conformation over the dynamics run was considered to be the final structure. Competitive solid-phase integrin binding assay The activity of peptide as integrin antagonist was assessed using solid phase integrin binding assay. Following buffers were prepared freshly. […] 96-well plate reader at 492 nm. […] Binding was visualized using TMB substrate. […] S7

[2] = test system: αvβ3, αvβ5 and α5β1 expressing U-87 MG glioblastoma cells; test: Competitive cell-adhesion inhibition assay to vitronectin, U-87 MG; format: cell-based, human; conditions: n = 5 ± SEM, read-out: In cellulo IC50 U-87 MG
Method: To validate our in vitro data and determine the efficacy of the peptides against the pro-angiogenic integrins in a complex cellular milieu, we subjected the peptides to a competitive cell-adhesion assay (Table 1) utilizing MDA-MB-231 human breast cancer cells expressing αvβ5 integrins, and U-87 MG human glioblastoma cells expressing αvβ3, αvβ5 and α5β1 integrins.[27] […]
(§2) Cell adhesion inhibition assay […]
(§3) incubated with 0.5% crystal violet for 15 min. Cells were then washed thoroughly with PBS buffer to remove excess of crystal violet. Finally dye was eluted out and dissolved using DMSO and quantification was done at 570 nm. […]
(§4) was dispensed and 5% FBS containing media was added. […]

[3] = target: T2, αvβ5 integrin (Homo sapiens, UniProt P06756+P18084); test: Competitive solid-phase integrin binding assay (ELISA), vitronectin-αvβ5; conditions: purified integrin, n = 5 ± SEM, read-out: In vitro IC50 αvβ5
T2 construct: purchased Millipore
Method: as §1, with “Post-blocking and washing peptides were mixed with biotinylated vitronectin and this mixure” for “Binding”, “then incubated with coated plates for 2h at room temperature.” for “visualized using TMB substrate.”, “After washing S6” for “S7”

[4] = test system: αvβ5 expressing MDA-MB-231 breast cancer cells; test: Competitive cell-adhesion inhibition assay to vitronectin, MDA-MB-231; format: cell-based, human; conditions: n = 5 ± SEM, read-out: In cellulo IC50 MDA-MB-231
Method: To validate our in vitro data and determine the efficacy of the peptides against the pro-angiogenic integrins in a complex cellular milieu, we subjected the peptides to a competitive cell-adhesion assay (Table 1) utilizing MDA-MB-231 human breast cancer cells expressing αvβ5 integrins, and U-87 MG human glioblastoma cells expressing αvβ3, αvβ5 and α5β1 integrins.[27] […] On the other hand, we observed a remarkable correlation between the in vitro affinity of the thioamidated peptides against the purified integrins and their efficacy in cellulo (αvβ5 with MDA-MB-231, and αvβ3 and αvβ5 with U-87 MG). […]
as §2, §3, §4

[5] = target: T3, αvβ3 integrin (Homo sapiens, UniProt P05106+P06756); test: Competitive solid-phase integrin binding assay (ELISA), vitronectin-αvβ3
T3 construct: purchased Millipore
Method: as §1, with “Post-blocking and washing peptides were mixed with biotinylated vitronectin and this mixure” for “Binding”, “then incubated with coated plates for 2h at room temperature.” for “visualized using TMB substrate.”, “After washing S6” for “S7”

[6] = target: T4, αIIbβ3 integrin (Homo sapiens, UniProt P05106+P08514); test: Competitive solid-phase integrin binding assay (ELISA), fibrinogen-αIIbβ3; conditions: purified integrin, n = 5 ± SEM, read-out: In vitro IC50 αIIbβ3
T4 construct: purchased Millipore
Method: The inhibitory potency of the peptides to block the association between the extracellular matrix and the integrins overexpressed on cell-surfaces was determined using an in vitro competitive solid phase binding assay.[25] We assessed the affinity of these peptides against the pro-angiogenic αvβ3, αvβ5 and α5β1 integrins, and their selectivity against their αIIbβ3 integrin, which plays an important role in platelet aggregation (Table 1).[26]
integrin was incubated for 1h at room temperature. After washing 1:250 diluted CD41b
antibody was incubated for 1h at room temperature. Anti-mouse IgG-peroxidase antibody
was used as secondary antibody. Binding was visualized using TMB substrate. […]

[7] = Ex vivo serum stability assay; conditions: human serum ex vivo
[8] = competitive ELISA, purified integrin, n = 5 ± SEM, read-out: In vitro IC50 αvβ3
[9] = from experimental IC50, read-out: pIC50 against αvβ3, Table S22 (converted)

| SMILES | IC50 [1] [nM] | IC50 [2] [nM] | IC50 [3] [nM] | IC50 [4] [nM] | IC50 [5, 8] [nM] | IC50 [6] [nM] | IC50 [5, 9] [nM] | Fraction of peptide intact at 72 h [7] | Fold difference in αvβ3 affinity ([5]; 9b versus 7 (differ only in chirality of Phe)) | Fold enhancement of affinity and efficacy in comparison to 9 ([5]; 9b versus 9, pro-angiogenic integrins) |
| --- | --- | --- | --- | --- | --- | --- | --- | --- | --- | --- |
| CC(C)[C@@H]1NC(=S)[C@@H](Cc2ccccc2)NC(=O)[C@H](CC(=O)O)NC(=O)CNC(=O)[C@H](CCCNC(=N)N)NC1=O [Compound 7] | 1.3 ± 0.6 | 326 ± 97 | 0.7 ± 0.2 | 4 ± 2 | 372 ± 52 | > 10000 |  |  |  |  |
| CC(C)[C@@H]1NC(=O)[C@@H](Cc2ccccc2)NC(=O)[C@H](CC(=O)O)NC(=O)CNC(=S)[C@H](CCCNC(=N)N)NC1=O [Compound 9] | 53 ± 42 | > 100000 | > 10000 | > 100000 | > 100000 | > 10000 | > 100000 |  |  |  |
| CC(C)[C@@H]1NC(=O)[C@H](Cc2ccccc2)NC(=O)[C@@H](CC(=O)O)NC(=O)CNC(=O)[C@H](CCCNC(=N)N)NC1=S [Compound 9a] |  | 40 ± 28 |  | 11 ± 9 |  |  |  |  |  |  |
| CC(C)[C@@H]1NC(=S)[C@H](Cc2ccccc2)NC(=O)[C@H](CC(=O)O)NC(=O)CNC(=O)[C@H](CCCNC(=N)N)NC1=O [Compound 9b] | 2 ± 0.4 | 1.6 ± 0.6 | 1.6 ± 0.3 | 1 ± 0.1 | 0.2 ± 0.1 | > 100000 | 0.2 | 1/4 | > 10^3 fold | ~10^5 fold |
| CC(C)[C@@H]1NC(=O)[C@H](Cc2ccccc2)NC(=S)[C@H](CC(=O)O)NC(=O)CNC(=O)[C@@H](CCCNC(=N)N)NC1=O [Compound 9c] | 461 ± 246 | > 100000 | > 10000 | > 100000 | > 100000 | > 100000 |  |  |  |  |
| CC(C)[C@H]1NC(=O)[C@H](Cc2ccccc2)NC(=O)[C@H](CC(=O)O)NC(=S)CNC(=O)[C@H](CCCNC(=N)N)NC1=O [Compound 9d] | 104 ± 95 | > 100000 | > 10000 | > 100000 | 584 ± 504 | > 100000 |  |  |  |  |
| CC(C)[C@@H]1NC(=O)[C@@H](Cc2ccccc2)NC(=O)[C@H](CC(=O)O)NC(=S)CNC(=O)[C@H](CCCNC(=N)N)NC1=O [Compound 10] | > 100000 | > 100000 | > 100000 | > 100000 | 252 ± 200 | > 100000 |  |  |  |  |
| CC(C)[C@@H]1NC(=O)[C@@H](Cc2ccccc2)NC(=S)[C@H](CC(=O)O)NC(=O)CNC(=O)[C@H](CCCNC(=N)N)NC1=O [Compound 11] | 62 ± 45 | 96 ± 77 | 1.3 ± 1 | 4.2 ± 4 | 72 ± 63 | > 100000 |  | 1/4 |  |  |
| CC(C)[C@@H]1NC(=O)[C@H](Cc2ccccc2)NC(=O)[C@H](CC(=O)O)NC(=O)CNC(=O)[C@H](CCCNC(=N)N)NC1=O [Compound 12, cyclo(RGDFV)] |  | > 100000 |  | > 100000 |  |  |  |  |  |  |
